Patent US20150164781A1, “Personal Care Products Containing Extracts of Chinese Lantern (Physalis alkekengi)” (Kemin Industries, Inc., priority 2013, published 2015)

Assay: Microtiter plate DPPH antioxidant assay
Settings: 0.05 mg/mL DPPH, five minutes at 25° C., absorbance 517 nm; from polynomial regression
Protocol: HPLC grade reagent alcohol was obtained from Fisher Scientific, catalog number A995-4. 2,2-Diphenyl-1-picrylhydrazyl (DPPH) was from Fisher Scientific, catalog number AA4415003. Trolox was from Fisher Scientific, catalog number 05-402-25. Test material was prepared as in Example 1 (LumiSalisTM SE lot 592142P5, 592142P8 and 592142P9). Absorbance was measured using a Molecular Devices SpectraMax M5e plate reader (KH51-001) with a clear, flat-bottom 96-well plate, […] Science […] catalog number CC plate-PS-965-F-C-S. Masses were measured with a Mettler Toledo analytical balance (Model X5204). […] The controls and samples were all plated in triplicate and the average absorbance value was used for results calculations. The plate was shaken and incubated at 25° C. in the microplate reader for five minutes. The absorbance was measured at 517 nm. The sample concentrations (x-axis) are plotted against their respective relative average absorbance value (subtracted the average absorbance of the background from the average absorbance) at 517 nm (y-axis) and the best fit line (a polynomial fit) is calculated. The […] (50% inhibition) of each control and sample were calculated based on the polynomial regression line equation.

In the case of `Cc1c(C)c2c(c(C)c1O)CCC(C)(C(=O)O)O2` (stereo not shown) [trolox, Trolox], the “IC50 on DPPH assay” value is reported as 0.0010%.
